The values below come from patent publication US20220117941A1, “CARBAMATE COMPOUND AND USE OF FORMULATION COMPRISING SAME IN PREVENTING, ALLEVIATING, OR TREATING ACUTE STRESS DISORDER OR POST-TRAUMATIC STRESS DISORDER” (SK BIOPHARMACEUTICALS CO., LTD., priority 2018, published 2022).

SMILES strings stand for the structures. Where a name gives a salt, the structure may show the parent alone.

Experiment [1] has as its system rats in which post-traumatic stress disorder was induced by single prolonged stress (SPS). Kind of experiment: Forced swimming test in rats with post-traumatic stress disorder induced by single prolonged stress (SPS). It counts as in vivo, rats (Sprague-Dawley). As to conditions: SPS-induced PTSD rats; 30 mg/kg orally for 15 days; FIGS. 1 to 3. The procedure:
Adult male rats (Sprague-Dawley, 200 to 230 g) were used. The experimental animals were maintained at a light-and-darkness cycle of 12 hours (illuminated from 7 pm to 7 am), a temperature of 22 to 25° C., a relative humidity of 40 to 60%, and free access to water and food. […]
(§1) Post-traumatic stress disorder was induced in Group 2 and Group 3 as described above. […] All experimental animals were measured daily for changes in mortality and body weight to determine whether post-traumatic stress disorder was well induced. […]
To carry out a forced swimming test in the rats of Groups 1 to 3, water of 25° C. was filled to a height of 30 cm in a transparent cylinder (20 cm in diameter×50 cm in height). […] After 24 hours, rats were inserted into the cylinder for 5 minutes and the escape behavior of rats was recorded and measured using a video camera. […] Climbing behavior measured the time to climb upward, immobility behavior measured the time to not escape, and swimming behavior measured the time to move horizontally in the cylinder. […]

Experiment [2] has as its system blood corticoid. Kind of experiment: Measurement of corticoid in blood of SPS-induced post-traumatic stress disorder rats (ELISA). It counts as in vivo, rats (Sprague-Dawley). As to conditions: SPS-induced PTSD rats; 30 mg/kg orally for 15 days; vs vehicle-treated PTSD-induced rats; FIG. 4. As for the experimental part: Adult male rats (Sprague-Dawley, 200 to 230 g) were used. The experimental animals were maintained at a light-and-darkness cycle of 12 hours (illuminated from 7 pm to 7 am), a temperature of 22 to 25° C., a relative humidity of 40 to 60%, and free access to water and food. The animals were randomly divided into three groups as follows: • Eight (8) rats as a control group, orally administered with saline as a vehicle at a dose volume of 3 ml/kg (Group 1) • Seven (7) rats in which post-traumatic stress disorder was induced, and saline as a vehicle was then orally administered at a dose volume of 3 ml/kg (Group 2) • Seven (7) rats in which post-traumatic stress disorder was induced, and Test Compound was then orally administered at a dose of 30 mg/kg (3 ml/kg) (Group 3) […]
as §1
Rats were sacrificed rapidly by decapitation on the day after the forced swimming test, and blood was quickly collected via the abdominal aorta. […] The corticoid concentration was measured by enzyme-linked immunoassay (ELISA) using a Novus Biologicals Corticosterone kit. The results were measured by means of an ELISA reader (MultiRead 400) to calculate the concentration of corticoid. […]
On the technique in general: ELISA stands for enzyme-linked immunosorbent assay.

Experiment [3] relates to mice (CD-1). Kind of experiment: Forced swimming test in mice with combination of Test Compound and selective serotonergic reuptake inhibitor. Type of experiment: in vivo. As to conditions: CD-1 mice, 30 min after injection, FIG. 5. The procedure: Adult mice (CD-1) were used. The experimental animals were maintained at a light-and-darkness cycle of 12 hours (illuminated from 7 pm to 7 am), a temperature of 22 to 25° C., a relative humidity of 40 to 60%, and free access to water and food. The animals were randomly divided into four groups as follows: • Eight (8) mice as a control group, administered with intraperitoneal injection of saline as a vehicle at a dose volume of 10 ml/kg (Group 1) • Eight (8) mice as an experimental group, administered with intraperitoneal injection of Test Compound at a dose of 5 mg/kg (10 ml/kg) (Group 2) • Eight (8) mice as an experimental group, administered with intraperitoneal injection of fluoxetine hydrochloride at a dose of 10 mg/kg (10 ml/kg) (Group 3) • Eight (8) mice as an experimental group, administered with intraperitoneal injection of Test Compound at a dose of 5 mg/kg (10 ml/kg) and fluoxetine hydrochloride at a dose of 10 mg/kg (10 ml/kg) (Group 4)
To perform a forced swimming test in the mice of Groups 1 to 4, water of 25° C. was filled to a height of 20 cm in a transparent cylinder. […] The results are represented in FIG. 5.
Statistical analysis was carried out by using one-way ANOVA in Prism 7.04.

`NC(=O)O[C@@H](Cn1ncnn1)c1ccccc1Cl` [Test Compound]: the “efficacy on symptoms associated with post-traumatic stress disorder (climbing, immobility and swimming behaviors in forced swimming test)” value in experiment [1] is reported as “showing efficacy on alleviating symptoms associated with post-traumatic stress disorder”. Also, in experiment [2], the blood corticoid concentration result is reported as “statistically significant reduction”. Also, in experiment [3] (5 mg/kg intraperitoneal), the “immobility time in forced swimming test (Test Compound alone)” value is given as “ineffective dose”.

Take `CNCCC(Oc1ccc(C(F)(F)F)cc1)c1ccccc1` (stereo not shown) [fluoxetine, fluoxetine hydrochloride, reference compound]: the “immobility time in forced swimming test (fluoxetine alone)” value in experiment [3] (fluoxetine hydrochloride 10 mg/kg intraperitoneal) is “ineffective dose”.
